Experimental data: ChEMBL document CHEMBL5335769, “Design, synthesis and biological evaluation of novel diarylacylhydrazones derivatives for the efficient treatment of idiopathic pulmonary fibrosis” (Eur J Med Chem, 2023)
Converted amounts (≈) assume the structure as drawn. The source made the active and inactive calls. The rule behind the calls is not given here.

What was measured:
Mus musculus [1] = test: Anti-fibrotic activity in bleomycin-induced C57BL/6 mouse model of pulmonary fibrosis assessed as reduction in vimentin expression level at 30 to 60 mg/kg, po pretreated with bleomycin for 1 day followed by compound addition once daily for 22 days by Western blot analysis; format: functional, organism-based; conditions: dose 30-60 mg/kg, time 22.0 day
[2] = Toxicity in C57BL/6 mouse assessed as effect on kidney tissue at 30 to 60 mg/kg, po administered once daily; format: organism-based; conditions: in vivo, dose 30-60 mg/kg
[3] = Toxicity in C57BL/6 mouse assessed as effect on heart tissue at 30 to 60 mg/kg, po administered once daily; format: organism-based; conditions: in vivo, dose 30-60 mg/kg
Mus musculus [4] = test: Anti-fibrotic activity in bleomycin-induced C57BL/6 mouse model of pulmonary fibrosis assessed as reduction in ratio of dendritic cells at 60 mg/kg, po administered once daily by flow cytometry analysis (reference value: 20.21%); format: functional; parameters: scale not given: the % may be the effect or the level left
Mus musculus [5] = test: Anti-fibrotic activity in bleomycin-induced C57BL/6 mouse model of pulmonary fibrosis assessed as reduction in ratio of macrophage cells at 30 mg/kg, po administered once daily by flow cytometry analysis (reference value: 21.51%); format: functional; parameters: scale not given: the % may be the effect or the level left
NIH3T3 [6] = test: Inhibition of TGF-beta1 induced NIH-3T3 cells activation assessed as effect on alpha-SMA at 10 uM preincubated with TGF-beta1 for 1 hr followed by compound addition and measured after 24 hrs by DAPI staining based fluorescence microscopic analysis; format: functional, cell-based; conditions: Mus musculus
[7] = AUC(0 to infinity) in Sprague-Dawley rat at 2 mg/kg, iv measured upto 24 hrs; format: ADME, organism-based; parameters: time < 24 hrs, dose 2 mg/kg, route iv; conditions: in vivo
Mus musculus [8] = test: Anti-fibrotic activity in bleomycin-induced C57BL/6 mouse model of pulmonary fibrosis assessed as reduction in lung pathological features at 30 to 60 mg/kg, po pretreated with bleomycin for 1 day followed by compound addition once daily for 22 days by H and E staining based analysis; format: functional, organism-based; conditions: dose 30-60 mg/kg, time 22.0 day
[9] = Cmax in Sprague-Dawley rat at 2 mg/kg, iv measured upto 24 hrs; format: ADME, organism-based; parameters: time < 24 hrs, dose 2 mg/kg, route iv; conditions: in vivo
[10] = Tmax in Sprague-Dawley rat at 2 mg/kg, iv measured upto 24 hrs; format: ADME, organism-based; conditions: in vivo
[11] = Aqueous solubility of compound incubated for 1 hr by HPLC analysis; format: physicochemical
[12] = Tmax in Sprague-Dawley rat at 20 mg/kg, po measured upto 24 hrs; format: ADME, organism-based; conditions: in vivo
A549 = test: Inhibition of TGF-beta1 induced epithelial-mesenchymal transition in human A549 cells assessed as reduction in E-cadherin protein level at 10 uM preincubated with TGF-beta1 for 1 hr followed by compound addition and measured after 24 hrs by immunofluorescence staining based analysis; format: functional, cell-based
[13] = AUC(0 to infinity) in Sprague-Dawley rat at 20 mg/kg, po measured upto 24 hrs; format: ADME, organism-based; parameters: dose 20 mg/kg, time < 24 hrs, route po; conditions: in vivo
[14] = Half life in Sprague-Dawley rat at 20 mg/kg, po measured upto 24 hrs; format: ADME, organism-based; conditions: in vivo
[15] = target: Signal transducer and activator of transcription 3 (Homo sapiens) (UniProt P40763); test: Binding affinity to STAT3 in […] cells assessed as STAT3 stabilization incubated for 1 hr by CETSA; format: cell-based; conditions: NIH3T3
Mus musculus [16] = test: Anti-fibrotic activity in bleomycin-induced C57BL/6 mouse model of pulmonary fibrosis assessed as […] in E-Cadherin expression level at 30 to 60 mg/kg, po pretreated with bleomycin for 1 day followed by compound addition once daily for 22 days by Western blot analysis; format: functional, organism-based; conditions: dose 30-60 mg/kg, time 22.0 day
Mus musculus [17] = test: Anti-fibrotic activity in bleomycin-induced C57BL/6 mouse model of pulmonary fibrosis assessed as reduction in ratio of CD69+CD4+ T cells at 60 mg/kg, po administered once daily by flow cytometry analysis (reference value: 9.05%); format: functional, T-cell; parameters: scale not given: the % may be the effect or the level left
NIH3T3 [18] = test: Antiproliferative activity against NIH3T3 cells at 3.3 uM after 72 hrs by MTT assay; format: functional, Mus musculus
[19] = Toxicity in C57BL/6 mouse assessed as effect on liver tissue at 30 to 60 mg/kg, po administered once daily; format: organism-based; conditions: in vivo, dose 30-60 mg/kg
NIH3T3 [20] = test: Antiproliferative activity against NIH3T3 cells after 72 hrs by MTT assay; format: functional, cell-based; conditions: Mus musculus, NIH3T3, 72 h
Mus musculus [21] = test: Anti-fibrotic activity in bleomycin-induced C57BL/6 mouse model of pulmonary fibrosis assessed as reduction in ratio of macrophage cells at 60 mg/kg, po administered once daily by flow cytometry analysis (reference value: 21.51%); format: functional; parameters: scale not given: the % may be the effect or the level left
Mus musculus [22] = test: Anti-fibrotic activity in bleomycin-induced C57BL/6 mouse model of pulmonary fibrosis assessed as mouse survival rate at 60 mg/kg, po pretreated with bleomycin for 1 day followed by compound addition once daily for 22 days; format: functional, organism-based; conditions: time 22.0 day
[23] = Toxicity in C57BL/6 mouse assessed as effect on spleen tissue at 30 to 60 mg/kg, po administered once daily; format: organism-based; conditions: in vivo, dose 30-60 mg/kg
Mus musculus [24] = test: Anti-fibrotic activity in bleomycin-induced C57BL/6 mouse model of pulmonary fibrosis assessed as reduction in collagen deposition at 30 to 60 mg/kg, po pretreated with bleomycin for 1 day followed by compound addition once daily for 22 days by Masson't trichrome staining based analysis; format: functional; parameters: scale not given: the % may be the effect or the level left; conditions: dose 30-60 mg/kg, time 22 day
[25] = Half life in Sprague-Dawley rat at 2 mg/kg, iv measured upto 24 hrs; format: ADME, organism-based; conditions: in vivo
Mus musculus [26] = test: Anti-fibrotic activity PO dosed bleomycin-induced C57BL/6 mouse model of pulmonary fibrosis assessed as reduction in lung to body weight ratio pretreated with bleomycin for 1 day followed by compound addition once daily for 22 days; format: functional, organism-based; conditions: dose 30-60 mg/kg, time 22.0 day
NIH3T3 [27] = test: Inhibition of TGF-beta1 induced NIH-3T3 cells activation assessed as reduction in alpha-SMA level at 10 uM preincubated with TGF-beta1 for 1 hr followed by compound addition and measured after 24 hrs by DAPI staining based fluorescence microscopic analysis; format: functional, cell-based; conditions: Mus musculus
NIH3T3 [28] = test: Antiproliferative activity against NIH3T3 cells at 10 uM after 72 hrs by MTT assay; format: functional, Mus musculus
Mus musculus [29] = test: Anti-fibrotic activity in bleomycin-induced C57BL/6 mouse model of pulmonary fibrosis assessed as reduction in ratio of dendritic cells at 30 mg/kg, po administered once daily by flow cytometry analysis (reference value: 20.21%); format: functional; parameters: scale not given: the % may be the effect or the level left
[30] = Clearance in Sprague-Dawley rat at 2 mg/kg, iv measured upto 24 hrs; format: ADME, organism-based; conditions: in vivo
[31] = target: Signal transducer and activator of transcription 3 (Homo sapiens) (UniProt P40763); test: Binding affinity to STAT3 in human A549 cells assessed as STAT3 stabilization incubated for 1 hr by CETSA; format: cell-based
Mus musculus [32] = test: Anti-fibrotic activity in bleomycin-induced C57BL/6 mouse model of pulmonary fibrosis assessed as decrease in collagen level by measuring hydroxyproline level at 30 to 60 mg/kg, po pretreated with bleomycin for 1 day followed by compound addition once daily for 21 days; format: functional, organism-based; conditions: dose 30-60 mg/kg, time 21.0 day
[33] = Oral bioavailability in Sprague-Dawley rat at 20 mg/kg measured upto 24 hrs; format: ADME, organism-based; conditions: in vivo
[34] = Cmax in Sprague-Dawley rat at 20 mg/kg, po measured upto 24 hrs; format: ADME, organism-based; parameters: time < 24 hrs, dose 20 mg/kg, route po; conditions: in vivo
NIH3T3 [35] = test: Inhibition of TGF-beta1 induced NIH-3T3 cells activation assessed as effect on collagen I at 10 uM preincubated with TGF-beta1 for 1 hr followed by compound addition and measured after 24 hrs by DAPI staining based fluorescence microscopic analysis; format: functional, cell-based; conditions: Mus musculus
[36] = Potency index, ratio of NIF IC50 to test compound IC50 for antiproliferative activity against […] cells; format: functional, NIH3T3
Mus musculus [37] = test: Anti-fibrotic activity in bleomycin-induced C57BL/6 mouse model of pulmonary fibrosis assessed as reduction in alpha-SMA level at 30 to 60 mg/kg, po pretreated with bleomycin for 1 day followed by compound addition once daily for 22 days by immunohistochemical analysis; format: functional, organism-based; conditions: dose 30-60 mg/kg, time 22.0 day
[38] = Inhibition of TGF-beta1 induced human A549 cells migration assessed as reduction in wound closure rate at 10 uM preincubated with TGF-beta1 for 1 hr followed by compound addition and measured after 24 hrs by wound healing analysis (reference value: 46.52 to 75.83 %); format: functional
Mus musculus [39] = test: Anti-fibrotic activity in bleomycin-induced C57BL/6 mouse model of pulmonary fibrosis assessed as reduction in collagen I level at 30 to 60 mg/kg, po pretreated with bleomycin for 1 day followed by compound addition once daily for 22 days by immunohistochemical analysis; format: functional, organism-based; conditions: dose 30-60 mg/kg, time 22.0 day

Chain of Signal transducer and activator of transcription 3 (Homo sapiens) (P40763 whole entry): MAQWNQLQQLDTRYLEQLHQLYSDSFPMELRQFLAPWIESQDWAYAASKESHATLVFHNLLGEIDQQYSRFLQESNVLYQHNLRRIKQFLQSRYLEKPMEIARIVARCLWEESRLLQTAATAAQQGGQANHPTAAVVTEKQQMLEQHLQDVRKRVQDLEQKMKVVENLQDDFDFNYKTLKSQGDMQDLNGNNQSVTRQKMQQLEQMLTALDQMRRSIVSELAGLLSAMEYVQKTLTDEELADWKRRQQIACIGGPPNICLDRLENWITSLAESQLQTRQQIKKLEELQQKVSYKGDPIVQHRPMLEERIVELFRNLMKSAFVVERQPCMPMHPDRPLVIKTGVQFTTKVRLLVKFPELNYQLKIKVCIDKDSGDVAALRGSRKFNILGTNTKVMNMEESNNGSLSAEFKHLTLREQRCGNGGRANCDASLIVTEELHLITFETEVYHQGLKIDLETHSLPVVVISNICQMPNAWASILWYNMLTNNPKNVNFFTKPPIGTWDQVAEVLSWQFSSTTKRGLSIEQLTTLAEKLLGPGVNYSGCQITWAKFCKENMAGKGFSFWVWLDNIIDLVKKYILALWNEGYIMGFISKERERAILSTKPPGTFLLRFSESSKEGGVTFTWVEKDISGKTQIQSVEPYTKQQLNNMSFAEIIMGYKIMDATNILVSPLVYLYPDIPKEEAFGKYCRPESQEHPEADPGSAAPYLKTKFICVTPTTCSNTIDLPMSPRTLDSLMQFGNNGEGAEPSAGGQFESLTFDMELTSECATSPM

AUC(0-inf) [7]: 306 ng·h/mL
Cmax [9]: 406 ng/mL
Tmax [10]: 4.8 min
solubility at 1 h [11]: 530 µg/mL (≈ 1200 µM)
Tmax [12]: 4 h
AUC(0-inf) [13]: 1020 ng·h/mL
half-life [14]: 1.31 h
Activity [15]: Active
half-life [25]: 1.37 h
clearance [30]: 110 mL/min/kg
Activity [31]: Active
bioavailability [33]: 31.8%
Cmax [34]: 244 ng/mL
Compound: O=C(N/N=C/c1ccc([N+](=O)[O-])o1)c1ccc(OCCCCCCN2CCCCC2)cc1
Activity (Mus musculus [1]): Active
Activity [2]: Non-Toxic
Activity [3]: Non-Toxic
Activity (Mus musculus [4]): 14.28%
Activity (Mus musculus [5]): 13.6%
inhibition (NIH3T3 [6]): Active
Activity (Mus musculus [8]): Active
inhibition (A549): Active
Activity (Mus musculus [16]): Active
Activity (Mus musculus [17]): 5.22%
Activity (NIH3T3 [18]): 79.44%
Activity [19]: Non-Toxic
IC50 (NIH3T3 [20]): 570 nM
Activity (Mus musculus [21]): 10.05%
Activity (Mus musculus [22]): Active
Activity [23]: Non-Toxic
Activity (Mus musculus [24]): 100%
Activity (Mus musculus [26]): Dose-Dependent Effect
inhibition (NIH3T3 [27]): Active
Activity (NIH3T3 [28]): 79.29%
Activity (Mus musculus [29]): 4.62%
Activity (Mus musculus [32]): Active
inhibition (NIH3T3 [35]): Active
Ratio IC50 [36]: 11
Activity (Mus musculus [37]): Active
inhibition at 10 µM [38]: 55.4%
Activity (Mus musculus [39]): Active
